Measured values from patent EP4349409A1, “COMPOUNDS FOR THE MANAGEMENT OF CELL STEMNESS AND INVASION IN CANCER AND RELATED DISEASES” (Instituto Biomar S.A., priority 2022, dated 2024).

Key:
[1] = tested on: G179; assay: MTT-based cytotoxicity assay, G179; assay type: cell-based; conditions: G179, 72 h after treatment
[2] = tested on: TAp73; assay: Western blot of endogenous TAp73 protein in glioblastoma stem cells G144 and G179; assay type: cell-based, human; conditions: G144 and G179, 72 h; BMT9 2.25 µM, TMZ 350 µM, BCNU 150 µM
Experimental: To specifically address BMT9 effect on endogenous TAp73 protein levels, we performed a Western blot analysis using an anti-TA-specific antibody. Cells were treated for 72 h either with a low dose of BMT9 (2.25 µM), or with TMZ and BCNU at the standard concentrations used in other articles (350 µM and 150 µM, respectively). Protein extracts were obtained and analyzed by Western blot (Figure 4B-C) and densitometric quantification of the autoradiographies was carried out. The ratio of TAp73/GAPDH band intensity was calculated and protein expression levels relative to non-treated (NT) cells were represented (Y axis).

[3] = tested on: G144 cells; assay: Annexin V / propidium iodide apoptosis flow cytometry in G144 cells; assay type: cell-based, human; conditions: 48 h
Experimental: For apoptosis induction analysis, the cells were treated with increasing amounts of BMT9 (4.5 µM and 9 µM) and collected 48 h after treatment. Anexin V and propidium iodide staining was performed using the FITC Annexin V Apoptosis Detection Kit I (BD Biosciences), following the manufacturer's instructions. Flow cytometry was performed with the "MACSQuantify Analyzer" (Miltenyi Biotec) and data were analyzed with "MACSQuantify" software (Miltenyi Biotec) (Figure 7A).

[4] = tested on: G144 R500; assay: MTT assay, TMZ-resistant clone G144 R500; assay type: cell-based; conditions: Homo sapiens, 72 hours
Description: (§1) While the first line therapy of gliomas has proven its effectiveness and improved clinical outcomes, acquired chemoresistance to alkylating agents has been identified as a major cause of treatment failure (Sarkaria et al., 2008). In a murine model of GB, long-term treatment with subtoxic TMZ doses enriched the side population of cancer stem cells, increasing the tumor aggressiveness (Bleau et al., 2009). Thus, we generated TMZ-resistant G144-clones that were selected upon treatment with TMZ either at 500 µM or 700 µM for several months (R500 and R700, respectively). The obtained clones maintained CD133 stem marker expression (Figure 9A). We then analyzed BMT9 dose-dependent effect on cell viability, by MTT assay, comparing the resistant clones to parental cells.

[5] = tested on: TAp73; assay: Western blot of endogenous TAp73 protein in U373 and T98G glioblastoma cell lines; assay type: cell-based, human; conditions: 72 h, BMT9 9 and 18 µM, TMZ 350 µM, BCNU 150 µM
Experimental: Next, we compared the effect of BMT9 and TMZ or BCNU treatments on endogenous TAp73 protein levels in U373 and T98G glioblastoma cell lines (Figure 2F and G). Cells were treated for 72 h either with BMT9 at 9 and 18 µM, or with TMZ and BCNU at the standard concentrations referred in other articles (350 µM and 150 µM, respectively). Protein extracts were obtained and analyzed by Western blot using a TAp73 specific antibody and GAPDH as a loading control. Densitometric quantification of the obtained blots are represented in Figure 2F and G (Y axis, ratio of TAp73/GAPDH band intensity and X axis, indicated treatments).

[6] = tested on: G144 R700; assay: MTT assay, TMZ-resistant clone G144 R700; assay type: cell-based; conditions: Homo sapiens, 72 hours
Description: as §1

[7] = tested on: G144; assay: Scratch (wound healing) assay, G144; assay type: cell-based, human; conditions: G144, 4.5µM, 24 h
Experimental: The effect of BMT9 in cell migration was evaluated using scratch assays, also known as wound healing assays. Cells were seeded in culture inserts for wound healing assays (Ibidi) at a cell density of 35,000 cells/cm^2; 24 h later the insert was removed to create the wound, and fresh medium was added with the corresponding treatment. Microscopy images were acquired at the time of treatment and 24 h later, using a Leica DMI3000 phase contrast microscope. Analysis was performed using the ImageJ software (Schindelin et al., 2012) and the MRI wound healing tool plugin (Suarez-Arnedo et al., 2020). Cell-free area was measured at the two indicated time points and the wound closure percentage relative to the starting point was calculated for each well individually. This assay was performed in G144 and in G179 cells (Figure 10 B and C, respectively).

[8] = Maximum Tolerated Dose after intraperitoneal administration; conditions: mouse, in vivo, ip; female C57BL/6 mice, single intraperitoneal dose, seven days
Experimental: The Maximum Tolerated Dose (MTD) and Pharmacokinetics (PK) of BMT9 were determined after intraperitoneal administration to female C57BL/6 (~25 g) mice.
C57BL/6 female mice (9-13 weeks in age) were administered intraperitoneally with a single dose of BMT9 at 35, 50, 75, 100 or 200 mg/Kg. Total of 3 animals were used for each independent serial sampling experiment. The compound was dissolved in an appropriate vehicle (Cremophor:EtOH:H20 1:1:8). Body weight, distress and survival were monitored 1, 2, 4 hours and 8 hours post-administration and every day during the whole observation period. The MTD was set on the dose below the first dose that caused severe loss of body weight (>20%) or death of one or more animals of a dose group seven days after treatment. The MTD of BMT9 was therefore set on about 140 mg/kg. The concentrations of BMT9 in plasma was determined at different times per duplicate using a previously validated analytical method. The compound was injected via i.p at 100 mg/kg. Total of 3 animals were used for each independent serial sampling experiment. Blood samples were collected at 5, 15, 30 min, 1, 4, 10, 24, and 48 hours from each animal via cardiac puncture; […] withdrawn at each time point. 25 microliters of blood sample were then used for quantitative bioanalysis by HPLC-MS/MS. […]

[9] = tested on: invasiveness-related genes; assay: qRT-PCR of invasiveness-related genes in G144 cells; assay type: cell-based, human; conditions: G144, 4.5 µM, 72 h
Experimental: For expression analysis, G144 cells were treated with BMT9 (4.5 µM) and after 72 h mRNA was extracted and qRT-PCR was performed.

[10] = tested on: G144 cells; assay: Proliferation rate analysis by p-His-3 immunostaining in G144 cells; assay type: cell-based, human; conditions: G144, 4.5 µM, 72 h (data not shown)
Description: It is noteworthy that G144 cells proliferate very slowly and, at maintenance culture conditions, about 90% of the cells are in G1 phase of the cell cycle (data not shown).

C=C1C2CCC(C)(C3COc4c(C)c(OC)c5c(c4C3O)C(O)OC5=O)C1CCC2(C)C (centres unmarked) [BMT9]
concentration as low as which still reduced viability [1]: 6.75 µM
endogenous TAp73 protein levels (TAp73/GAPDH) [2]: reduced effectively TAp73 expression
apoptosis induction ([3]; G144, 4.5 µM (IC50 dosage)): moderate levels of apoptosis
apoptosis induction ([3]; G144, 9 µM): strongly induced cell death
IC50 [4]: 4.5 to 9 µM
endogenous TAp73 protein levels (TAp73/GAPDH) [5]: efficiently reduced endogenous TAp73 expression
IC50 [6]: 3.37 to 4.5 µM
cell migration (wound closure) [7]: significantly impaired cell migration
MTD at 168 h [8]: ~140 mg/kg
expression of a set of invasiveness-related genes [9]: downregulation of all the analyzed genes
percentage of cells in mitosis [10]: 0.1%
